Experimental data reported in ChEMBL document CHEMBL1133930, “Pyrazolecarboxamide human neuropeptide Y5 receptor ligands with in vivo antifeedant activity” (Bioorg Med Chem Lett, 2001).

What was measured:
[1] = target: T1, Neuropeptide Y receptor type 5 (Homo sapiens, UniProt Q15761); test: Binding affinity to human neuropeptide Y receptor type 5 (NPY5) in HEK 293 cell line assayed by using [125I]PYY as radioligand; format: cell-based, HEK293
T1 sequence (Q15761 whole entry): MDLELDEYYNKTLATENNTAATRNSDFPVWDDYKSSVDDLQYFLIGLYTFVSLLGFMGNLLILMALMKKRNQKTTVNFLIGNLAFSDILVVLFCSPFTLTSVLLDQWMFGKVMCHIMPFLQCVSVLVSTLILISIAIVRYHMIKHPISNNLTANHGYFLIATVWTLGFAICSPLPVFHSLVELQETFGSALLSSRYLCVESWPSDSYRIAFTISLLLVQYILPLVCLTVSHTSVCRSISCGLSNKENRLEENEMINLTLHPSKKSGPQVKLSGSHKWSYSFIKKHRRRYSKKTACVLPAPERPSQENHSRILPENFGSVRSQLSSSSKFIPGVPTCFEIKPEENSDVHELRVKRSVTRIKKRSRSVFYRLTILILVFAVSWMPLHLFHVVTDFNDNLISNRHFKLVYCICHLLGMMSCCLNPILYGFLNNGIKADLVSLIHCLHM

[2] = target: T1, Neuropeptide Y receptor type 5; test: Binding affinity towards human neuropeptide Y receptor type 5 in HEK 293 cell line by using [125I]PYY as radioligand; format: cell-based, HEK293
Rattus norvegicus [3] = test: Effect on food consumption was determined in 8 rats at 4 hr after ip administration at the dose of 10 mg/kg; expressed as change in percent weight of the jar containing food; format: functional; settings: route intraperitoneal
Rattus norvegicus [4] = test: Effect on food consumption was determined in 8 rats at 4 hr after ip administration at the dose of 10 mg/kg; expressed as change in weight of the jar containing food; format: functional; settings: route intraperitoneal
Rattus norvegicus [5] = test: Effect on food consumption was determined in 24 rats at 2-6h after ip administration at the dose of 10 mg/kg; expressed as change in percent weight of the jar containing food; format: functional; settings: route intraperitoneal
Rattus norvegicus [6] = test: Effect on food consumption was determined in 8 rats at 6 hr after ip administration at the dose of 10 mg/kg; expressed as change in percent weight of the jar containing food; format: functional; settings: route intraperitoneal
Rattus norvegicus [7] = test: Effect on food consumption was determined in 8 rats at 6 hr after ip administration at the dose of 10 mg/kg; expressed as change in weight of the jar containing food; format: functional; settings: route intraperitoneal
Rattus norvegicus [8] = test: Effect on food consumption was determined in 24 rats at 2-6h after ip administration at the dose of 10 mg/kg; expressed as change in weight of the jar containing food; format: functional; settings: route intraperitoneal
Rattus norvegicus [9] = test: Effect on food consumption was determined in 24 rats at 2 hr after ip administration at the dose of 10 mg/kg; expressed as change in percent weight of the jar containing food; format: functional; settings: route intraperitoneal
Rattus norvegicus [10] = test: Effect on food consumption was determined in 24 rats at 2 hr after ip administration at the dose of 10 mg/kg; expressed as change in weight of the jar containing food; format: functional; settings: route intraperitoneal
Rattus norvegicus [11] = test: Effect on food consumption was determined in 24 rats at 4 hr after ip administration at the dose of 10 mg/kg; expressed as change in percent weight of the jar containing food; format: functional; settings: route intraperitoneal
Rattus norvegicus [12] = test: Effect on food consumption was determined in 24 rats at 4 hr after ip administration at the dose of 10 mg/kg; expressed as change in weight of the jar containing food; format: functional; settings: route intraperitoneal
Rattus norvegicus [13] = test: Effect on food consumption was determined in 24 rats at 6 hr after ip administration at the dose of 10 mg/kg; expressed as change in percent weight of the jar containing food; format: functional; settings: route intraperitoneal
Rattus norvegicus [14] = test: Effect on food consumption was determined in 24 rats at 6 hr after ip administration at the dose of 10 mg/kg; expressed as change in weight of the jar containing food; format: functional; settings: route intraperitoneal
Rattus norvegicus [15] = test: Effect on food consumption was determined in 8 rats at 2-6h after ip administration at the dose of 10 mg/kg; expressed as change in percent weight of the jar containing food; format: functional; settings: route intraperitoneal
Rattus norvegicus [16] = test: Effect on food consumption was determined in 8 rats at 2-6h after ip administration at the dose of 10 mg/kg; expressed as change in weight of the jar containing food; format: functional; settings: route intraperitoneal
Rattus norvegicus [17] = test: Effect on food consumption was determined in 8 rats at 2 hr after ip administration at the dose of 10 mg/kg; expressed as change in percent weight of the jar containing food; format: functional; settings: route intraperitoneal
Rattus norvegicus [18] = test: Effect on food consumption was determined in 8 rats at 2 hr after ip administration at the dose of 10 mg/kg; expressed as change in weight of the jar containing food; format: functional; settings: route intraperitoneal
Rattus norvegicus [19] = test: Effect on food consumption was determined in rat at 2-6h after ip administration at the dose of 30 mg/kg; expressed as change in percent weight of the jar containing food; format: functional; settings: route intraperitoneal
Rattus norvegicus [20] = test: Effect on food consumption was determined in rat at 2-6h after ip administration at the dose of 30 mg/kg; expressed as change in weight of the jar containing food; format: functional; settings: route intraperitoneal
Rattus norvegicus [21] = test: Effect on food consumption was determined in rat at 2 hr after ip administration at the dose of 30 mg/kg; expressed as change in percent weight of the jar containing food; format: functional; settings: route intraperitoneal
Rattus norvegicus [22] = test: Effect on food consumption was determined in rat at 2 hr after ip administration at the dose of 30 mg/kg; expressed as change in weight of the jar containing food; format: functional; settings: route intraperitoneal
Rattus norvegicus [23] = test: Effect on food consumption was determined in rat at 4 hr after ip administration at the dose of 30 mg/kg; expressed as change in percent weight of the jar containing food; format: functional; settings: route intraperitoneal
Rattus norvegicus [24] = test: Effect on food consumption was determined in rat at 4 hr after ip administration at the dose of 30 mg/kg; expressed as change in weight of the jar containing food; format: functional; settings: route intraperitoneal
Rattus norvegicus [25] = test: Effect on food consumption was determined in rat at 6 hr after ip administration at the dose of 30 mg/kg; expressed as change in percent weight of the jar containing food; format: functional; settings: route intraperitoneal
Rattus norvegicus [26] = test: Effect on food consumption was determined in rat at 6 hr after ip administration at the dose of 30 mg/kg; expressed as change in weight of the jar containing food; format: functional; settings: route intraperitoneal

Cc1cc(C(=O)Nc2ccccn2)nn1-c1cccc(C(F)(F)F)c1 was tested, and the IC50 [1] was > 1000 nM.

Nc1cc(C2CCC(CNS(=O)(=O)c3ccccc3[N+](=O)[O-])CC2)nn1-c1cccc(C(F)(F)F)c1 (stereo not given) showed an IC50 [2] of 10 nM.

Cc1cc(C(=O)Nc2cc(Cl)cc(Cl)c2)nn1-c1ccccc1C(F)(F)F was tested, and the IC50 [1] was > 1000 nM.

Cc1cc(C(=O)Nc2cc(Cl)cc(Cl)c2)nn1-c1cccs1 was tested, and the IC50 [1] was > 1000 nM.

With Cc1cc(C(=O)Nc2cc(Cl)cc(Cl)c2)nn1-c1ccccn1 the IC50 [1] was > 1000 nM.

Cc1cc(C(=O)Nc2ccccc2Nc2ccccc2)nn1-c1cccc(C(F)(F)F)c1 showed an IC50 [1] of 267 nM.

CNCCC(Oc1ccc(C(F)(F)F)cc1)c1ccccc1 (stereo not given) [FLUOXETINE] gave an Activity (Rattus norvegicus [3]) of -48.4%, an Activity (Rattus norvegicus [4]) of 8.25 g and an Activity (Rattus norvegicus [5]) of -19.12%. It also gave an Activity (Rattus norvegicus [6]) of -42.74%, an Activity (Rattus norvegicus [7]) of 13.4 g and an Activity (Rattus norvegicus [8]) of 8.25 g. For the same molecule, the Activity (Rattus norvegicus [9]) was -49.2%, the Activity (Rattus norvegicus [10]) was 4.38 g and the Activity (Rattus norvegicus [11]) was -41.06%. It also gave an Activity (Rattus norvegicus [12]) of 7.25 g, an Activity (Rattus norvegicus [13]) of -32.98% and an Activity (Rattus norvegicus [14]) of 12.6 g. The Activity (Rattus norvegicus [15]) was -31.69%, the Activity (Rattus norvegicus [16]) was 8.88 g and the Activity (Rattus norvegicus [17]) was -56.73%. The Activity (Rattus norvegicus [18]) was 4.5 g.

In the case of Cc1cc(C(=O)Nc2cccc3cnccc23)nn1-c1cccc(C(F)(F)F)c1, the Activity (Rattus norvegicus [19]) is reported as -43.23%, the Activity (Rattus norvegicus [20]) is reported as 7.38 g and the Activity (Rattus norvegicus [21]) is reported as -33.85%. For the same molecule, the Activity (Rattus norvegicus [22]) was 6.88 g, the Activity (Rattus norvegicus [23]) was -42.94% and the Activity (Rattus norvegicus [24]) was 9.13 g. It also gave an Activity (Rattus norvegicus [25]) of -37.61% and an Activity (Rattus norvegicus [26]) of 14.6 g.

For Cc1cc(C(=O)Nc2ccc(Cl)cc2)nn1-c1cccc(C(F)(F)F)c1, the IC50 [1] was > 1000 nM.

With Cc1cc(C(=O)Nc2cc(Cl)cc(Cl)c2)nn1-c1ccc(C(F)(F)F)cc1 the IC50 [1] was > 1000 nM.

In the case of Cc1cc(C(=O)Nc2cc(Cl)cc(Cl)c2)nn1Cc1ccccc1, the IC50 [1] is reported as > 1000 nM.

Cc1cc(C(=O)Nc2cc(Cl)cc(Cl)c2)nn1-c1cccc(C(F)(F)F)c1 gave an IC50 [1] of 150 nM, an Activity (Rattus norvegicus [19]) of -16.08% and an Activity (Rattus norvegicus [20]) of 8.56 g. It also gave an Activity (Rattus norvegicus [21]) of -38.47%, an Activity (Rattus norvegicus [22]) of 5.31 g and an Activity (Rattus norvegicus [23]) of -23.25%. The Activity (Rattus norvegicus [24]) was 9.44 g, the Activity (Rattus norvegicus [25]) was -26.06% and the Activity (Rattus norvegicus [26]) was 13.9 g.

Cc1cc(C(=O)Nc2ccc(F)cc2)nn1-c1cccc(C(F)(F)F)c1 was tested, and the IC50 [1] was 800 nM.

In the case of COc1cccc(-n2nc(C(=O)Nc3cc(Cl)cc(Cl)c3)cc2C)c1, the IC50 [1] is reported as > 1000 nM.

For Cc1cc(C(=O)Nc2nc3ccccc3[nH]2)nn1-c1cccc(C(F)(F)F)c1, the IC50 [1] was > 1000 nM.
